In BindingDB's records for doi:10.1021/jm00156a023 (1986):

Columns and labels:
[1] = molecular target: sucrase-isomaltase (Sus scrofa); test: Alpha-D-glucosidase inhibitory activity and enzyme inhibition in vitro against porcine sucrase
[2] = molecular target: maltase-glucoamylase (Sus scrofa); test: Inhibitory activity against porcine maltase

SMILES | IC50 [1] [nM] | IC50 [2] [nM]
CO[C@H]1O[C@H](CO)[C@H](N[C@H]2C[C@](O)(CO)[C@@H](O)[C@H](O)[C@H]2O)[C@H](O)[C@H]1O | 230 | 100
CO[C@H]1O[C@H](CO)[C@@H](N[C@H]2C[C@](O)(CO)[C@@H](O)[C@H](O)[C@H]2O)[C@H](O)[C@H]1O | 80 | 72
OC[C@@]1(O)C[C@H](NC[C@@H](O)c2ccccc2)[C@H](O)[C@H](O)[C@H]1O [1-Hydroxymethyl-5-(2-hydroxy-2-phenyl-ethylamino)-cyclohexane-1,2,3,4-tetraol] | 190 | 
OC[C@@]1(O)C[C@H](NC[C@H](O)c2ccccc2)[C@H](O)[C@H](O)[C@H]1O [1-Hydroxymethyl-5-(2-hydroxy-2-phenyl-ethylamino)-cyclohexane-1,2,3,4-tetraol] |  | 5.8
OC[C@@]1(O)C[C@H](NCCc2ccccc2)[C@H](O)[C@@H](O)[C@@H]1O [1-Hydroxymethyl-5-phenethylamino-cyclohexane-1,2,3,4-tetraol] | 2.3 | 100
CC(C)(C)c1cc(CN[C@H]2C[C@](O)(CO)[C@@H](O)[C@H](O)[C@H]2O)cc(C(C)(C)C)c1O [5-(3,5-Di-tert-butyl-4-hydroxy-benzylamino)-1-hydroxymethyl-cyclohexane-1,2,3,4-tetraol] | 6.8 | 43
CC(C)=CCC/C(C)=C/CN[C@H]1C[C@](O)(CO)[C@@H](O)[C@H](O)[C@H]1O [5-(3,7-Dimethyl-octa-2,6-dienylamino)-1-hydroxymethyl-cyclohexane-1,2,3,4-tetraol] | 11 | 520
OC[C@@]1(O)C[C@H](NCc2ccc(Br)cc2)[C@H](O)[C@@H](O)[C@@H]1O [5-(4-Bromo-benzylamino)-1-hydroxymethyl-cyclohexane-1,2,3,4-tetraol] | 15 | 230
OC[C@@]1(O)C[C@H](NCC2CCCCC2)[C@H](O)[C@@H](O)[C@@H]1O [5-(Cyclohexylmethyl-amino)-1-hydroxymethyl-cyclohexane-1,2,3,4-tetraol] | 9.3 | 240
OC[C@@]1(O)C[C@H](NC2CCCCC2)[C@H](O)[C@@H](O)[C@@H]1O [5-Cyclohexylamino-1-hydroxymethyl-cyclohexane-1,2,3,4-tetraol] | 15 | 410
OCC1=C[C@H](NC(CO)CO)[C@H](O)[C@@H](O)[C@@H]1O [6-(2-Hydroxy-1-hydroxymethyl-ethylamino)-4-hydroxymethyl-cyclohex-4-ene-1,2,3-triol] | 180 | 5900
N[C@H]1C[C@](O)(CO)[C@@H](O)[C@H](O)[C@H]1O [Valiolamine] | 49 | 2200
